Data taken from patent US20260364184A1, “COMPOUND BASED ON OXOISOINDOLINYL-SUBSTITUTED TETRAHYDROPYRIMIDINE-DIONE AND USE THEREOF” (GLUETACS THERAPEUTICS (SHANGHAI) CO., LTD., priority 2023, published 2026).

Tests used:
[1] = system: Human neuroblastoma cell line (SK-N-AS); test: Inhibition of SK-N-AS cell proliferation (CellTiter luminescent viability); format: cell-based; conditions: Table II2, EZH2 inhibitor-based, 96 hours; for inhibition at 0.01 µM: 10 nM, read-out: Inhibition Rate at 10 nM (%); for inhibition at 0.5 µM: 500 nM, read-out: Inhibition Rate at 500 nM (%)
EZH2 = target: T1, EZH2 (Homo sapiens, UniProt Q15910+Q96SW2); test: Western blot degradation of EZH2; format: cell-based; conditions: hPBMC Cell; 24 hours
T1 construct: expression of target proteins in cells; endogenous in cells
Experimental: Conventional Western blot assay was performed to evaluate the effects of the compounds of the present disclosure on the expression of target proteins in cells.
(1) Cell Seeding and Protein Harvesting: The selected cells were processed according to the cell seeding procedure and protein harvesting procedure in Table II-2.
(2) To the collected supernatant, 5×SDS sample loading buffer was added, followed by denaturation at 95 °C for 5 minutes. The denatured samples were then separated by SDS-PAGE electrophoresis on a polyacrylamide gel. Proteins were transferred to a nitrocellulose membrane (0.45 μm NC membrane), blocked with blocking buffer at room temperature for 1 hour, and subjected to antibody incubation and development procedures according to the antibody manufacturer's instructions (Cell Signaling Technology).
Half-Maximal Degradation Concentration value (the drug concentration required for degrading proteins by 50%, abbreviated as DC50) reads method: comparing the grayscale values of Western blot bands from drug-treated samples with those from blank DMSO-treated controls, and identifying the drug concentration range at which the grayscale value is half that of the DMSO-treated control bands.
DC50 values can be calculated using ImageJ software to measure grayscale values of Western blot bands from drug-treated samples. The concentration-response curve is fitted to estimate the drug concentration corresponding to half the grayscale value.
Target protein remaining (%) refers to the percentage of target protein remaining in cells after treatment with protein degrader compounds.
Calculation method for target protein remaining (%): Use ImageJ software to measure grayscale values of Western blot bands from drug (protein degrader)-treated samples. The grayscale value of drug-treated bands is divided by that of internal control protein bands, and the resulting quotient is normalized to obtain the relative percentage of remaining target protein after protein degrader treatment.
Target protein degradation rate (%)=1−target protein remaining (%).

[2] = system: Human gastric cancer cell line MGC803; test: Inhibition of MGC803 tumor cell proliferation (CellTiter luminescent viability); format: cell-based; conditions: Table IA1, IRAK4 inhibitor-based compounds; MGC803, 96 hours; read-out: Inhibitory activity (IC50, nM) on tumor cell proliferation, MGC803
Experimental: (§1) The tumor cells used herein were cultured in a cell culture medium listed in table 3 at 37 °C in an incubator with 5% CO2. Prior to experimentation, all cell lines used were correctly identified by STR profiling, and tested negative for mycoplasma contamination using a mycoplasma detection kit through routine screenings.
(§2) The IC50 values of the compounds of the present disclosure (including the compounds in Table 1, Table 2, and Examples 1-468) were determined using the CellTiter-Meiluncell Luminescent Cell Viability Assay Kit from Dalian Meilun Biotech Co., Ltd. The detailed procedure is as follows: Tumor cells were seeded in 96-well cell culture plates at the densities specified in Table 4. On the following day, the test compounds of the present disclosure were subjected to serial dilution. The dilution can be performed according to one of the following two methods: • (1) The first dilution method: The test compounds of the present disclosure (including the compounds in Table 1, Table 2, and Examples 1-468) were subjected to 5-fold serial dilutions starting from a highest concentration of 2000 μM, resulting in a total of 9 concentrations from high to low (2000, 400, 80, 16, 3.2, 0.64, 0.128, 0.0256, 0.00512 μM). Subsequently, 0.5 μL of the test compound dilution was transferred into the 96-well plate containing the cells, with each well containing 100 μL of cell culture medium. […] Into the 96-well plate, the diluted test compounds and corresponding detection reagents were added, resulting in final test compound concentrations of 500 nM and 10 nM, respectively. The experimental procedure is described below using the diluted 2 μM test compound as an example.
(§3) 0.5 μL of the aforementioned diluted compound of the present disclosure (including the compounds in Table 1, Table 2, and Examples 1-468) was added to the seeded cells in 100 μL of medium, yielding a final test compound concentration of 10 nM. After the cells were treated with the compounds of the present disclosure for a specified period, the cell viability assay reagent was added to the culture medium according to the kit's instructions to determine cell viability. […] All controls were treated using the same procedure as the compounds of the present disclosure. The growth inhibition curves for the compounds of the present disclosure were plotted using Prism GraphPad software, and the IC50 values were calculated therefrom.

[3] = system: Human T lymphocytic leukemia cell line (Jurkat); test: Inhibition of Jurkat cell proliferation (CellTiter luminescent viability); format: cell-based; conditions: Table IA1, IRAK4 inhibitor-based, 96 hours, read-out: Inhibitory activity (IC50, nM) on tumor cell proliferation, Jurkat
[4] = system: Human large cell immunoblastic lymphoma cell line SR; test: Inhibition of SR cell proliferation (CellTiter luminescent viability); format: cell-based; conditions: Table IA1, IRAK4 inhibitor-based, 96 hours, read-out: Inhibitory activity (IC50, nM) on tumor cell proliferation, SR
Procedure, shortened: (§4)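 IC50 is fitted from luminescent viability (CellTiter-Meiluncell) curves. Nine-point, 5-fold dilution series (top stock 2000 μM) are added at 0.5 μL per 100 μL medium to cells plated the day before, with growth at 37 °C and 5% CO2.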

[5] = system: Human Multiple myeloma cell line (MM.1S); test: Inhibition of MM.1S cell proliferation (CellTiter luminescent viability); format: cell-based; conditions: Table IA1, IRAK4 inhibitor-based, 96 hours, read-out: Inhibitory activity (IC50, nM) on tumor cell proliferation, MM.1S
Procedure, shortened: as §4

JEKO-1 = test: Inhibition of JEKO-1 cell proliferation (CellTiter luminescent viability); format: cell-based, human; conditions: Table IA1, IRAK4 inhibitor-based; JEKO-1, 96 hours; read-out: Inhibitory activity (IC50, nM) on tumor cell proliferation, JEKO-1
Experimental: as §1, §2, §3

[6] = system: Human malignant melanoma cell line (A375); test: Inhibition of A375 cell proliferation (CellTiter luminescent viability); conditions: A-375, Table III (II1), EZH2 inhibitor-based, 96 hours; for inhibition at 0.01 µM: A375, 10 nM, read-out: Inhibition Rate at 10 nM (%); for inhibition at 0.5 µM: A375, 500 nM, read-out: Inhibition Rate at 500 nM (%)
Experimental: as §1, §2, §3

T1 sequence (Q15910 whole entry): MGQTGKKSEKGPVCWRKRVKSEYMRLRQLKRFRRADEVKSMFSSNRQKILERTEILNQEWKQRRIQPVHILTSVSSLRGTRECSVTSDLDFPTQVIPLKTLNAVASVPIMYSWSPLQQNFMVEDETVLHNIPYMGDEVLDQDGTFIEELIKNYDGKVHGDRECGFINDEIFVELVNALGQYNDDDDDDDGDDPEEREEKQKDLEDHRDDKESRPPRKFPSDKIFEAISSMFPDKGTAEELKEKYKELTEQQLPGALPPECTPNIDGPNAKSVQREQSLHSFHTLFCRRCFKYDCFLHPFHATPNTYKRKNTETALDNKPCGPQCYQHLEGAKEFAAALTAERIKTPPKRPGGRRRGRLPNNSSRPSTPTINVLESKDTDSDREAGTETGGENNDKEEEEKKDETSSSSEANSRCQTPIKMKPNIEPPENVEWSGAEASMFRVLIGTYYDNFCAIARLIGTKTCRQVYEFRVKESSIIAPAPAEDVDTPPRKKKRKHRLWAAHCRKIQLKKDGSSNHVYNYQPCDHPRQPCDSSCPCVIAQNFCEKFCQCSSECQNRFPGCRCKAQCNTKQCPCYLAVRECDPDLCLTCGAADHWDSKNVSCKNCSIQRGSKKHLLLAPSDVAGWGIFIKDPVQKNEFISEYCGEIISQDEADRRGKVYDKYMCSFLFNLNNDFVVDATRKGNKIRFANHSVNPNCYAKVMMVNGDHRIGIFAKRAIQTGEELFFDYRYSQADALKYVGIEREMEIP
T1 sequence (O75530 whole entry partner): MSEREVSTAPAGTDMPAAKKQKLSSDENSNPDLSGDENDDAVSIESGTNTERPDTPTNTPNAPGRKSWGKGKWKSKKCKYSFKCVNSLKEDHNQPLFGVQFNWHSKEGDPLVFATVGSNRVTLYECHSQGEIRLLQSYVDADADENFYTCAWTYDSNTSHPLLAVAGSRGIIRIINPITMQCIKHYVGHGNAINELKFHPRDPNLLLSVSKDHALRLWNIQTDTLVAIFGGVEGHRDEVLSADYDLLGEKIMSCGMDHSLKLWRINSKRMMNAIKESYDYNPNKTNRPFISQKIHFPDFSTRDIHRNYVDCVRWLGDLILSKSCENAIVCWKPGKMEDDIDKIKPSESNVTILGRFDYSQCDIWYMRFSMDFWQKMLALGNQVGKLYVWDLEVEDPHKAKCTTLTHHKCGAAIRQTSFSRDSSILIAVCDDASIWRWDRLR
T1 sequence (Q15022 whole entry partner): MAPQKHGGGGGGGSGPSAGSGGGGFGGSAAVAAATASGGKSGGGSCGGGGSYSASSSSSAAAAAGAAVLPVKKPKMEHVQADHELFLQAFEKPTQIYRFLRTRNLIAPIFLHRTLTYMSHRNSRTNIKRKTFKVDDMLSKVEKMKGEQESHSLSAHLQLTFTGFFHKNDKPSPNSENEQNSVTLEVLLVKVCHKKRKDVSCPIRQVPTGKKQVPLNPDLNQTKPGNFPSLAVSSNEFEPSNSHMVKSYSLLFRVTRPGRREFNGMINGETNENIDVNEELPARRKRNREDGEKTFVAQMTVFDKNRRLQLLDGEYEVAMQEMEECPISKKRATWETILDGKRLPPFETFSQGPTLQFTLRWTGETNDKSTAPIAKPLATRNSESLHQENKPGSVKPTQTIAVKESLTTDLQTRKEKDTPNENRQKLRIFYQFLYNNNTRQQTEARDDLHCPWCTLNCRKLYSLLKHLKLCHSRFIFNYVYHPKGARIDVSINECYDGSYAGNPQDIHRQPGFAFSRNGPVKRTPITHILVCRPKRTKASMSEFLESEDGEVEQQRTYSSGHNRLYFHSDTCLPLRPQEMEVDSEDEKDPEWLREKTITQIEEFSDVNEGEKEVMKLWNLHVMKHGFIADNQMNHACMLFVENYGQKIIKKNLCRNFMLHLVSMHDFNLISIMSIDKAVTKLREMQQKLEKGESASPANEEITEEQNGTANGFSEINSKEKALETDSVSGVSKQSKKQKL
T1 sequence (Q96SW2 whole entry): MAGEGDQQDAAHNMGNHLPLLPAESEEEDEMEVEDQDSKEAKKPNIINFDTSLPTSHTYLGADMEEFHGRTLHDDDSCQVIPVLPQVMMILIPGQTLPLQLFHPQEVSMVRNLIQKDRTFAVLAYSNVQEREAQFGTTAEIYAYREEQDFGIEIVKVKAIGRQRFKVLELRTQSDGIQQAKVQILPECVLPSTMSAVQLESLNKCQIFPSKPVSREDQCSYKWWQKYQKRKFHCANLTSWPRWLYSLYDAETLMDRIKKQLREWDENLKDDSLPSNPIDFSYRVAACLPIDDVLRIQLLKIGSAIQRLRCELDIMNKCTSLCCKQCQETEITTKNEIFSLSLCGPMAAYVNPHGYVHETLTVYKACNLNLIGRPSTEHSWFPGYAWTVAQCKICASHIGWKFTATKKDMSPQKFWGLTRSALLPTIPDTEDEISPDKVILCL
T1 sequence (Q16531 whole entry partner): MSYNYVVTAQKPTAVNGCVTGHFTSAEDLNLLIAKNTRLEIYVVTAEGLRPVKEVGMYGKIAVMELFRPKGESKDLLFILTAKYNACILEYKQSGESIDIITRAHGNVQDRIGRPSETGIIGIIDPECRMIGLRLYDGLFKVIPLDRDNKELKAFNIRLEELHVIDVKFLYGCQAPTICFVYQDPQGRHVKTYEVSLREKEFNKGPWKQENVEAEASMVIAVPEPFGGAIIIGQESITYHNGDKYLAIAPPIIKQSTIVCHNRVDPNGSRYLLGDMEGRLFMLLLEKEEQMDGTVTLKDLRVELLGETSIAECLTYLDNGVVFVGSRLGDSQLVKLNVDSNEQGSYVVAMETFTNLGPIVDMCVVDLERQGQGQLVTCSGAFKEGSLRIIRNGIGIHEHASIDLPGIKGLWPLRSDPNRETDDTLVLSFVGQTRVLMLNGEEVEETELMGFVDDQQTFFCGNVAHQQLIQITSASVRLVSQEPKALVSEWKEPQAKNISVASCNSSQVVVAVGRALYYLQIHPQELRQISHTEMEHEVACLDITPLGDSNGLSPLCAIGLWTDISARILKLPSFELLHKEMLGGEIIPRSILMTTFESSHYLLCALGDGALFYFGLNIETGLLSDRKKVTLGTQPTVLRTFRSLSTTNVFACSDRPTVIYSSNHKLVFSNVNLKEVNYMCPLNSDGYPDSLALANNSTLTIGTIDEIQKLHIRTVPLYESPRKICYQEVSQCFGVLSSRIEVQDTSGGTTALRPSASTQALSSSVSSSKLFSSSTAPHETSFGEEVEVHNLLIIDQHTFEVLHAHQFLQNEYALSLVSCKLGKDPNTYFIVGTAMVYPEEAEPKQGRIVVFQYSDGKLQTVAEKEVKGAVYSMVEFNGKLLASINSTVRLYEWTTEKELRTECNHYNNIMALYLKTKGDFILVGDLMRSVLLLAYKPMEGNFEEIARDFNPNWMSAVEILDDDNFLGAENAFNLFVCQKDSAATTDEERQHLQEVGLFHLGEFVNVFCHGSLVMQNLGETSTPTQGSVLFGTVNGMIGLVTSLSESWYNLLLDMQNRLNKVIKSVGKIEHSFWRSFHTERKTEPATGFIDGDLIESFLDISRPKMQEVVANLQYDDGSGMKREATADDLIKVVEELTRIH

| SMILES | Degradation of substrate protein EZH2 (substrate protein remaining %) (EZH2) | inhibition at 0.01 µM [1] | inhibition at 0.5 µM [1] | other results |
| --- | --- | --- | --- | --- |
| O=C1CCN(N2Cc3cc(CN4CCN(c5ccc6c(c5)nc(NC(=O)c5cccc(C(F)(F)F)c5)n6[C@H]5CC[C@@H](CO)CC5)CC4)ccc3C2=O)C(=O)N1 [GT-04949, N-(5-(4-((2-(2,4-dioxotetrahydropyrimidin-1(2H)-yl)-1-oxoisoindolin-5-yl)methyl)piperazin-1-yl)-1-((1s,4s)-4-(hydroxymethyl)cyclohexyl)-1H-benzo[d]imidazol-2-yl)-3-(trifluoromethyl)benzamide] |  |  |  | IC50 [2]: 500 to 1000 nM; IC50 [3]: 500 to 1000 nM; IC50 [4]: 100 to 300 nM; IC50 [5]: 100 to 300 nM; IC50 (JEKO-1): 100 to 300 nM |
| CCCc1cc(C)[nH]c(=O)c1CNC(=O)c1cc(-c2ccc(N3CCN(C4CCN(Cc5ccc6c(c5)C(=O)N(N5CCC(=O)NC5=O)C6=O)CC4)CC3)nc2)cc2c1cnn2C(C)C [GT-08423, 6-(6-(4-(1-((2-(2,4-dioxotetrahydropyrimidin-1(2H)-yl)-1,3-dioxoisoindolin-5-yl)methyl)piperidin-4-yl)piperazin-1-yl)pyridin-3-yl)-1-isopropyl-N-((6-methyl-2-oxo-4-propyl-1,2-dihydropyridin-3-yl)methyl)-1H-indazole-4-carboxamide] | A (0%≤substrate protein remaining %≤80%) | 20 to 30% | 40 to 50% | inhibition at 0.01 µM [6]: 20 to 30%; inhibition at 0.5 µM [6]: 30 to 40% |
| CCCc1cc(C)[nH]c(=O)c1CNC(=O)c1cc(-c2ccc(N3CCN(Cc4ccc5c(c4)C(=O)N(N4CCC(=O)NC4=O)C5=O)CC3)nc2)cc2c1cnn2C(C)C [GT-08419, 6-(6-(4-((2-(2,4-dioxotetrahydropyrimidin-1(2H)-yl)-1,3-dioxoisoindolin-5-yl)methyl)piperazin-1-yl)pyridin-3-yl)-1-isopropyl-N-((6-methyl-2-oxo-4-propyl-1,2-dihydropyridin-3-yl)methyl)-1H-indazole-4-carboxamide] | A (0%≤substrate protein remaining %≤80%) |  |  |  |
| CCN(c1cc(-c2ccc(N3CCN(C4CCN(CC5CCN(c6ccc7c(c6)C(=O)N(N6CCC(=O)NC6=O)C7=O)CC5)CC4)CC3)cc2)cc(C(=O)NCc2c(C)cc(C)[nH]c2=O)c1C)C1CCOCC1 [GT-08524, N-((4,6-dimethyl-2-oxo-1,2-dihydropyridin-3-yl)methyl)-4′-(4-(1-((1-(2-(2,4-dioxotetrahydropyrimidin-1(2H)-yl)-1,3-dioxoisoindolin-5-yl)piperidin-4-yl)methyl)piperidin-4-yl)piperazin-1-yl)-5-(ethyl(tetrahydro-2H-pyran-4-yl)amino)-4-methyl-[1,1′-biphenyl]-3-carboxamide] | A (0%≤substrate protein remaining %≤80%) | 15 to 20% | 20 to 30% |  |
| CCCc1cc(C)[nH]c(=O)c1CNC(=O)c1cc(-c2ccc(N3CCC(N(C)Cc4ccc5c(c4)C(=O)N(N4CCC(=O)NC4=O)C5=O)CC3)nc2)cc2c1cnn2C(C)C [GT-08421, 6-(6-(4-(((2-(2,4-dioxotetrahydropyrimidin-1(2H)-yl)-1,3-dioxoisoindolin-5-yl)methyl)(methyl)amino)piperidin-1-yl)pyridin-3-yl)-1-isopropyl-N-((6-methyl-2-oxo-4-propyl-1,2-dihydropyridin-3-yl)methyl)-1H-indazole-4-carboxamide] | A (0%≤substrate protein remaining %≤80%) | 20 to 30% | 20 to 30% | inhibition at 0.01 µM [6]: 15 to 20%; inhibition at 0.5 µM [6]: 20 to 30% |

Continued, in another order:

| Degradation of substrate protein EZH2 (substrate protein remaining %) (EZH2) | SMILES | inhibition at 0.01 µM [1] | inhibition at 0.5 µM [1] | other results |
| --- | --- | --- | --- | --- |
| A (0%≤substrate protein remaining %≤80%) | CCCc1cc(C)[nH]c(=O)c1CNC(=O)c1cc(-c2ccc(N3CCN(C4CCN(Cc5ccc6c(c5)CN(N5CCC(=O)NC5=O)C6=O)CC4)CC3)nc2)cc2c1cnn2C(C)C [GT-08422, 6-(6-(4-(1-((2-(2,4-dioxotetrahydropyrimidin-1(2H)-yl)-1-oxoisoindolin-5-yl)methyl)piperidin-4-yl)piperazin-1-yl)pyridin-3-yl)-1-isopropyl-N-((6-methyl-2-oxo-4-propyl-1,2-dihydropyridin-3-yl)methyl)-1H-indazole-4-carboxamide] | 5 to 10% | 20 to 30% |  |
| A (0%≤substrate protein remaining %≤80%) | CCCc1cc(C)[nH]c(=O)c1CNC(=O)c1cc(-c2ccc(N3CCN(Cc4ccc5c(c4)CN(N4CCC(=O)NC4=O)C5=O)CC3)nc2)cc2c1cnn2C(C)C [GT-08418, 6-(6-(4-((2-(2,4-dioxotetrahydropyrimidin-1(2H)-yl)-1-oxoisoindolin-5-yl)methyl)piperazin-1-yl)pyridin-3-yl)-1-isopropyl-N-((6-methyl-2-oxo-4-propyl-1,2-dihydropyridin-3-yl)methyl)-1H-indazole-4-carboxamide] |  |  |  |
| A (0%≤substrate protein remaining %≤80%) | CCN(c1cc(-c2ccc(N3CCN(Cc4ccc5c(c4)CN(N4CCC(=O)NC4=O)C5=O)CC3)cc2)cc(C(=O)NCc2c(C)cc(C)[nH]c2=O)c1C)C1CCOCC1 [GT-08510, N-((4,6-dimethyl-2-oxo-1,2-dihydropyridin-3-yl)methyl)-4′-(4-((2-(2,4-dioxotetrahydropyrimidin-1(2H)-yl)-1-oxoisoindolin-5-yl)methyl)piperazin-1-yl)-5-(ethyl(tetrahydro-2H-pyran-4-yl)amino)-4-methyl-[1,1′-biphenyl]-3-carboxamide] | 15 to 20% | 20 to 30% |  |
